Measurements reported in a melting point compilation (Tetko et al.; mined from patent text by program, amines drawn as free bases though some values may be those of a salt).

melting point [°C] | Structure (SMILES)
148 to 149 | CC(=O)Nc1cccc2cccc(N=[N+]=[N-])c12
220 to 222 | Cn1c(COc2ccc(CC3SC(=O)NC3=O)cc2)nc2ccc(Oc3ccc4cccc(NC(=O)NCc5ccccc5)c4c3)cc21 (stereo not given)
306 to 308 | Oc1cc(-c2ccc(Cl)cc2)nc2ccnn12
121 to 124 | CCCN(O)CCc1ccc2c(c1)C(=O)c1ccccc1CO2
129 to 130 | CC(NC(=O)c1sc2ccc(C(F)(F)F)cc2c1O)C(O)(c1ccccc1)c1ccccc1 (stereo not given)
221 to 222 | Cc1c2c(nn1C(C)C)c(N)nc1ccccc12
226 to 231 | CN1CCN(C(=O)c2ccccc2C(c2ccc(O)cc2)c2ccc(O)cc2)CC1
68 to 70 | CCc1nc(Cl)c(C(N)=O)n1Cc1ccc2oc(-c3ccccc3NS(=O)(=O)C(F)(F)F)c(Br)c2c1
265 to 268 | CC(=O)NNc1nc(C(F)(F)F)nc(-c2ccc(S(C)(=O)=O)cc2)c1-c1ccccc1
114 to 115 | CCCCc1nc2cccc(C=O)c2n1Cc1ccccc1Cl
178 to 180 | CCOc1ccc(O)c2c1C(=O)N(CSc1nnnn1-c1ccccc1)S2(=O)=O
230 to 233 | COc1cc(Nc2nc3cccc(-c4ccc(S(=O)(=O)N(C)C)cc4)c3o2)cc(OC)c1OC
201 to 202 | CNC(=O)c1cccc(NC(=O)Cc2cccc3ccccc23)c1
204 to 205 | CC(C)N1C(=O)c2cnc(-c3ccccc3)nc2N(C(=O)CCl)c2ccccc21
225 to 230 | O=C(Nc1ccc(C(=O)N2Cc3ccccc3Cc3ccccc32)cc1)c1cccc(Cl)c1Cl
75 to 77 | Cc1ccc(-c2cc(Cl)c3ccccc3n2)cc1

melting point [°C] | Structure (SMILES)
125 to 127 | Cc1cccc(-c2n[nH]cc2-c2ccc(F)c(-c3c[nH]c(C(O)CO)n3)c2)n1 (stereo not given)
110 to 112 | CCCc1nc(NCc2ccco2)nc(Nc2cccc(C(F)(F)F)c2)n1
201 to 202 | COC(=O)CCc1ccccc1-c1[nH]c2cccc3c2c1CCNC3=O
119 to 120 | COc1cc(COc2cc(C=O)n(-c3ccccc3)n2)ccc1OCc1nc(-c2ccccc2)oc1C
147 | Cc1ccc(-c2cncn2-c2ccc(S(C)(=O)=O)cc2)cc1F
198 to 199 | O=C(c1cc2cccc(NS(=O)(=O)c3cccs3)c2[nH]1)N(Cc1ccccc1)Cc1ccccc1
115 | COc1ccc(-c2ccc(=O)n(Cc3nc4cc(F)ccc4o3)c2)cc1
127 to 129 | COc1cc([N+](=O)[O-])ccc1S(=O)(=O)Nc1ccccc1C
153 | CCn1c(C)nc2cc(CN3CCN(C(c4ccccc4)c4ccccc4)CC3)ccc21
198 | O=C1c2cc3ccccc3c(-c3ccccc3)c2C(=O)N1C1CC1
267 to 268 | Cc1oc(-c2ccccc2)nc1COc1ccc2cc(C=CC=C3SC(=O)NC3=O)ccc2c1
232 to 234 | Cc1nc2c3c(ccn2c1C)C(=O)C(O)C(c1ccccc1)N3 (stereo not given)
150 to 152 | Cc1ccc2cccc(OCc3c(C)ccc([N+](=O)[O-])c3C)c2n1
222 to 223 | O=c1nc(-c2cccc(-c3cccs3)n2)sc2ccccc12
159 to 160 | CCCc1nc2c(N)nc3ccccc3c2o1
178 to 185 | CS(=O)c1ccc2c3c(cccc13)C(=O)N2 (stereo not given)

Continued, compound first:

Structure (SMILES) | melting point [°C]
CC(C)Oc1cc(-n2c(=O)c(F)c(C(F)(F)F)n(C)c2=O)c(F)cc1Cl | 104 to 107
CC(=O)c1cc(Cl)c(N)c(C#N)c1F | 180 to 182
CCCN(c1ccccc1)C1CCN(CCOc2c(C)cccc2C)CC1 | 82
O=C1NCN(c2ccccc2)C12CCN(CC1CCc3ccccc3O1)CC2 (stereo not given) | 192 to 194
OC1CSC(Oc2cnc(Cl)c(F)c2)C(O)C1O (stereo not given) | 198 to 200
CC1NC(=O)COC1=O (stereo not given) | 139 to 141
CSC1=NC(C)C(c2ccccc2)=NN1 (stereo not given) | 159 to 160
N#CCC(=O)Nc1ccccc1S | 198 to 201
CCOc1nc(C)nc(N2CCc3ccccc3CC2)c1[N+](=O)[O-] | 145 to 147
COc1ccc(C(=O)Nc2c(Cl)cncc2Cl)c2c1OCC2CC(=O)O (stereo not given) | 259 to 263
N#CCCn1cnc2ccccc21 | 108 to 110
CC(C)(C)OC(=O)N(Cc1ncccc1C(N)=NO)C(=O)OC(C)(C)C | 178 to 180
COc1ccc(N2CCOCC2)cc1NC(=S)C(=O)O | 156 to 158
O=C(O)CN1C(=O)C(=Cc2ccc(Cl)cc2)SC1=S | 272 to 274
Cc1cnc(NCCCNc2ncc(Cc3ccc(C)nc3)c(=O)[nH]2)c(C)c1 | 104 to 105
CCOC(=O)c1cn(C)nc1Nc1ccc(F)cc1[N+](=O)[O-] | 162
CCN(CC)C(=O)n1ccc(S(=O)(=O)c2cccc(F)c2F)n1 | 78 to 81
Nc1c(F)c(N2CC3NCCOC3C2)c(F)c2c1c(=O)c(C(=O)O)cn2C1CC1F (stereo not given) | 292 to 294
CCn1nc(C(C)(C)C)c2c1C(=S)NCC(c1ccccc1)=N2 | 230
CC(C)(C)OC(=O)N1C(=O)C2(COc3cc4c(cc32)OCCO4)c2ccccc21 (stereo not given) | 171 to 172
CS(=O)(=O)c1ccc(/C(=C\CC2CCCC2)C(=O)O)cc1 | 162 to 165
CC(=O)Oc1ccc(C(=NNc2cccc([N+](=O)[O-])c2)c2ccc(OC(C)=O)cc2)cc1 | 88 to 90
CCCCCCCCCCCCCCCCCCOc1cc(OCc2ccccc2)cc(N(CC(=O)OC)CC(=O)OC)c1 | 66 to 68

Structure (SMILES) | melting point [°C]
COC(=O)C1=C(C)NC(C)=C(C(C)=O)C1c1ccccc1Br (stereo not given) | 146 to 148
Cc1c(Cl)cc(C2=NNC(=O)C(S)C2)cc1Cl (stereo not given) | 184 to 187
Cc1cccc(CC(N)(CF)C(=O)O)c1O (stereo not given) | 168
N#CC1CN1C(=O)c1cc2ccccc2o1 (stereo not given) | 92 to 94
CCOC(=O)C1(C(=O)OCC)CCC2(c3cc(OC)c(OC)cc3CCN2C(C)=O)C(C2c3cc(OC)c(OC)cc3CCN2CC)C1 (stereo not given) | 142 to 144
COC(=O)C1CCc2ccc(O)cc2C1 (stereo not given) | 83 to 84
Cc1ccc(C(=O)P2(=O)Oc3ccccc3-c3ccccc32)c(C)c1 (stereo not given) | 166
CCCn1c(=O)c2[nH]c(/C=C/c3ccc(Cl)c(Cl)c3)nc2n(CCC)c1=O | 195 to 202
CCOc1sc(C)nc1S(=O)(=O)NC(=O)Nc1nc(OC)cc(OC)n1 | 140 to 143
CC(=O)Nc1nc(OC(C)C)c2nc(Cl)ccc2n1 | 244
COc1cc(N)c(Cl)cc1C(=O)NC1CCN2CCCC2C1 (stereo not given) | 193 to 194
CCOC(=O)Cc1ccc2c(c1)CC(NC(=O)OC)CC2 (stereo not given) | 89 to 90
COc1ccc(F)cc1C(=O)NC1COc2cc(OC)c(S(=O)(=O)NC(=S)NC(C)C)cc2C1 (stereo not given) | 179 to 180
O=C(Nc1ccc(C(F)(F)F)cc1)NC1CCN(S(=O)(=O)c2cccc(C(F)(F)F)c2)CC1 | 246 to 251
O=C1Nc2cc3c(cc2SC1CCCBr)OCO3 (stereo not given) | 168 to 169
Cc1ncc2n1-c1ccc(C(C)O)cc1C(c1ccccc1)=NC2 (stereo not given) | 223 to 225
O=C(NC(=O)c1c(F)cccc1F)Nc1cc(Cl)c(OC(F)(F)C(F)Cl)cc1Cl (stereo not given) | 177 to 179
O=C1C(=NO)Nc2c(Br)cccc21 | > 250
COc1ccc(CCl)c(F)c1OC | 44.5 to 47.5
CCCCNC(=S)NS(=O)(=O)c1cc2c(cc1OC)OCCC2CNC(=O)c1cc(Cl)ccc1OC (stereo not given) | 167
CCOC(=O)N1CCC(=C2c3cc(C)ccc3CCn3ccnc32)CC1 | 156
Cc1c(CCCCCCCCCCCC(=O)O)cccc1C(=O)c1ccc(Cl)cc1 | 79
O=[N+]([O-])c1c(-c2c(C(F)(F)F)[nH]c(-c3ccc(Cl)cc3)c2[N+](=O)[O-])csc1Br | 186 to 190

Structure (SMILES) | melting point [°C]
C[Si](C)(C)C#Cc1ccc([N+](=O)[O-])cc1 | 95 to 100
CCCCN(C(=O)C(C)C)c1nnc(C)s1 | 54 to 57
O=C(O)c1cc2nc3n(c2cc1Cl)CCC3 | > 270
CCCN1C(=O)N(c2ccc(N3CCN(c4ccc(O)cc4)CC3)cc2)NC1C (stereo not given) | 253
CC(C)(C)c1ccc(/C=N/OCCCOc2ccc(C(=O)O)c(NC(=O)c3cc(C(F)(F)F)cc(C(F)(F)F)c3)c2)cc1 | 158
COc1ccc2c(c1)CN(C(=O)CN1CCCC1)N=C2Cc1c(Cl)cncc1Cl | 148 to 150
CC1NC(=O)NN=C1c1ccc(NC(=O)CO)cc1 (stereo not given) | 246 to 248
O=C1c2cc(F)ccc2S(=O)(=O)c2cc(C3=NCCN3)ccc21 | 248 to 249
Cc1cc(C2=NOC(c3cccc(C(F)(F)F)c3)(C(F)(F)F)C2)ccc1Br (stereo not given) | 84 to 85
O=C(O)c1nc2c(=O)[nH]c3cc(C(F)(F)F)ccc3n2c1CBr | > 250
COc1cc2ncnc(NS(=O)(=O)c3ccc(Br)cc3)c2cc1OC | 241 to 242
CN(CCOc1ccc(NS(C)(=O)=O)cc1)CCc1ccc(N)cc1 | 155 to 157
O=C1Cc2cc3c(cc2CCN1Cc1ccccc1)OCO3 | 141 to 142
Clc1ccc(C=Cc2nc3c(s2)NCCCC3)cc1 | 188 to 189
CCCn1c(=O)c2nc(-c3ccc(/C=C/C(=O)O)cc3)[nH]c2n(C)c1=O | > 300
CCOC(=O)c1cnc2c(SC(=O)N(C)C)cccn2c1=O | 133 to 134
OCc1ccc(OCc2cccc(Cl)c2)cn1 | 78 to 80
COC(=O)Nc1nc2cc(C(=NO)c3ccc(F)cc3)ccc2[nH]1 | > 315
O=[N+]([O-])c1nn(-c2c(Cl)cc(C(F)(F)F)cc2Cl)cc1S(=O)C(F)(F)F (stereo not given) | 124 to 130
COP(=O)(OC)C1=C(C)NC(C)=C(C(=O)OCCN(C)Cc2ccccc2)C1c1cccc([N+](=O)[O-])c1 (stereo not given) | 101 to 103
Cc1ccc(C(O)(c2ccc(C)cc2)C2CCNCC2)cc1 | 150 to 153
CC(=O)Nc1ccc(C)c2c1C(=O)CCN2CC#N | 190 to 193
